# Source: ChEMBL document CHEMBL5370655
# Activity calls are given as the source filed them. No cut-off for these calls is given here.
# Assays:
# [1] = Downregulation of EGFR phosphorylation in human H1975-TM cells at 1000 nM measured after 24 hrs by Western blot analysis; assay type: functional
# A-431 = assay: Antiproliferative activity against human A-431 cells assessed as inhibition of cell growth measured after 72 hrs by CCK8 assay; assay type: functional, cell-based; settings: A-431, 72 h
# [2] = Induction of cell cycle arrest in human H1975-TM cells assessed as accumulation at S phase at 50 nM measured after 24 hrs by RNase A/propidium iodide staining based flow cytometric analysis (reference value: 18.1 %); assay type: functional
# [3] = Toxicity in BALB/c mouse xenografted with human H1975-TM cells assessed as appearance of lesions in spleen at 25 to 100 mg/kg, po measured after 25 days by hematoxylin-eosin staining based analysis; assay type: organism-based; settings: in vivo, 600 h, dose 25-100 mg/kg, time 25 day
# [4] = Induction of cell cycle arrest in human H1975-TM cells assessed as accumulation at G2/M phase at 250 nM measured after 24 hrs by RNase A/propidium iodide staining based flow cytometric analysis (reference value: 17.6 %); assay type: functional
# [5] = MRT (0 to infinity) in Sprague-Dawley rat at 50 mg/kg, po measured upto 24 hrs by HPLC-MS/MS analysis; assay type: ADME, organism-based; settings: in vivo
# [6] = AUC (0 to infinity) in Sprague-Dawley rat at 50 mg/kg, po measured upto 24 hrs by HPLC-MS/MS analysis; assay type: ADME, organism-based; parameters: dose 50 mg/kg, time < 24 hrs, route po; settings: in vivo
# [7] = biological target: Epidermal growth factor receptor (Homo sapiens, UniProt P00533)
# Epidermal growth factor receptor (Homo sapiens, UniProt P00533), sequence (P00533 whole entry): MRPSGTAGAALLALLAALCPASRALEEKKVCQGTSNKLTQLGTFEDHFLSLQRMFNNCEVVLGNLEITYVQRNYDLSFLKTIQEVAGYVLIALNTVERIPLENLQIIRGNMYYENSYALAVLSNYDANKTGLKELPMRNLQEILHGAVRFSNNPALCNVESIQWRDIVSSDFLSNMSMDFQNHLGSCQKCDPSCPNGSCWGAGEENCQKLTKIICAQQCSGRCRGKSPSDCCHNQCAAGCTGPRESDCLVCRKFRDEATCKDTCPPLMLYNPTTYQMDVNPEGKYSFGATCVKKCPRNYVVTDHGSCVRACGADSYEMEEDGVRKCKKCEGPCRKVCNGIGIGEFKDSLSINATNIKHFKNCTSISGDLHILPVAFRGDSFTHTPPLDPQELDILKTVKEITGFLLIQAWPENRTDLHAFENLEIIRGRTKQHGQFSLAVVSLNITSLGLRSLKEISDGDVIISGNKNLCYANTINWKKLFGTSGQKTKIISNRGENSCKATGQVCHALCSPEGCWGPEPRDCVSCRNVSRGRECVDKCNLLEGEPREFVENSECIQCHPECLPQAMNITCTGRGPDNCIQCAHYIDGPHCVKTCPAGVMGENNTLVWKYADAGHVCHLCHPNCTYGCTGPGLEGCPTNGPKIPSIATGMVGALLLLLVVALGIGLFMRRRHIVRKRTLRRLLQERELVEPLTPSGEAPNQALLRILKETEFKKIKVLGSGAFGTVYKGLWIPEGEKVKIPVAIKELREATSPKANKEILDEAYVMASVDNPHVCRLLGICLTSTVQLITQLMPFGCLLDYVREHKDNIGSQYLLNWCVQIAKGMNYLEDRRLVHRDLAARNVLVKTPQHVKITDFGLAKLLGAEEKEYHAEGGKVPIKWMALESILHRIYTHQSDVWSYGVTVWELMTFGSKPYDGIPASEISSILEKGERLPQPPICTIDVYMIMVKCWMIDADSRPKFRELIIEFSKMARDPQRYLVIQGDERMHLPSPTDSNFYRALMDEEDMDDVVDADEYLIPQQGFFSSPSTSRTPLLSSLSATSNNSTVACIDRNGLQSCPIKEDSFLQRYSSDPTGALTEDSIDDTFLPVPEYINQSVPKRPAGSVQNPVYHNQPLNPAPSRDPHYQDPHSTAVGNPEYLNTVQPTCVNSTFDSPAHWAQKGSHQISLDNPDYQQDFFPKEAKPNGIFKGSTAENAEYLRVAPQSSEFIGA
# Description: Inhibition of wild-type EGFR (unknown origin) using polyE4Y1 as substrate incubated for 5 mins with compound followed by substrate addition measured after 60 mins in presence of ATP by ADP-Glo reagent based assay
# [8] = Induction of apoptosis in human H1975-TM cells assessed as apoptotic cells at 250 nM measured after 24 by Annexin V-FITC and propidium iodide staining based flow cytometric analysis (reference value: 7.08 %); assay type: functional; settings: time 24 hrs
# [9] = Half life in Sprague-Dawley rat at 50 mg/kg, po measured upto 24 hrs by HPLC-MS/MS analysis; assay type: ADME, organism-based; settings: in vivo
# [10] = Induction of apoptosis in human H1975-TM cells assessed as apoptotic cells at 500 nM measured after 24 by Annexin V-FITC and propidium iodide staining based flow cytometric analysis (reference value: 7.08 %); assay type: functional; settings: time 24 hrs
# [11] = Antitumor activity against human H1975-TM cells xenografted in BALB/c mouse assessed as tumor growth inhibition at 25 mg/kg, po measured after 25 days; assay type: functional; settings: time 25 day
# [12] = Toxicity in BALB/c mouse xenografted with human H1975-TM cells assessed as appearance of lesions in lung at 25 to 100 mg/kg, po measured after 25 days by hematoxylin-eosin staining based analysis; assay type: organism-based; settings: in vivo, 600 h, dose 25-100 mg/kg, time 25 day
# [13] = Inhibition of colony formation in human H1975-TM cells at 250 nM incubated for 10 days by crystal violet staining based analysis; assay type: functional; settings: time 10 day
# PC-9 = assay type: functional, cell-based; settings: Homo sapiens, PC-9, 72 h
# [14] = Cmax in Sprague-Dawley rat at 5 mg/kg, iv measured upto 24 hrs by HPLC-MS/MS analysis; assay type: ADME, organism-based; parameters: time < 24 hrs, dose 5 mg/kg, route iv; settings: in vivo
# [15] = MRT (0 to infinity) in Sprague-Dawley rat at 5 mg/kg, iv measured upto 24 hrs by HPLC-MS/MS analysis; assay type: ADME, organism-based; settings: in vivo
# H1975-TM [16] = settings: Homo sapiens, dose 10-500 nM, time 10.0 day
# [17] = Induction of cell cycle arrest in human H1975-TM cells assessed as accumulation at G0/G1 phase at 50 nM measured after 24 hrs by RNase A/propidium iodide staining based flow cytometric analysis (reference value: 64.3 %); assay type: functional
# [18] = Half life in Sprague-Dawley rat at 5 mg/kg, iv measured upto 24 hrs by HPLC-MS/MS analysis; assay type: ADME, organism-based; settings: in vivo
# [19] = Oral bioavailability in Sprague-Dawley rat at 50 mg/kg measured upto 24 hrs by HPLC-MS/MS analysis; assay type: ADME, organism-based; settings: in vivo
# [20] = Induction of apoptosis in human H1975-TM cells assessed as apoptotic cells at 50 nM measured after 24 by Annexin V-FITC and propidium iodide staining based flow cytometric analysis (reference value: 7.08 %); assay type: functional; settings: time 24 hrs
# [21] = Tmax in Sprague-Dawley rat at 5 mg/kg, iv measured upto 24 hrs by HPLC-MS/MS analysis; assay type: ADME, organism-based; settings: in vivo
# [22] = Induction of cell cycle arrest in human H1975-TM cells assessed as accumulation at S phase at 500 nM measured after 24 hrs by RNase A/propidium iodide staining based flow cytometric analysis (reference value: 18.1 %); assay type: functional
# [23] = Toxicity in BALB/c mouse xenografted with human H1975-TM cells assessed as appearance of lesions in liver at 25 to 100 mg/kg, po measured after 25 days by hematoxylin-eosin staining based analysis; assay type: organism-based; settings: in vivo, 600 h, dose 25-100 mg/kg, time 25 day
# [24] = Induction of cell cycle arrest in human H1975-TM cells assessed as accumulation at G2/M phase at 500 nM measured after 24 hrs by RNase A/propidium iodide staining based flow cytometric analysis (reference value: 17.6 %); assay type: functional
# [25] = biological target: Epidermal growth factor receptor (Homo sapiens, UniProt P00533, L858R)
# Epidermal growth factor receptor (Homo sapiens, UniProt P00533, L858R), sequence (P00533 25-1210 L858R limits assumed): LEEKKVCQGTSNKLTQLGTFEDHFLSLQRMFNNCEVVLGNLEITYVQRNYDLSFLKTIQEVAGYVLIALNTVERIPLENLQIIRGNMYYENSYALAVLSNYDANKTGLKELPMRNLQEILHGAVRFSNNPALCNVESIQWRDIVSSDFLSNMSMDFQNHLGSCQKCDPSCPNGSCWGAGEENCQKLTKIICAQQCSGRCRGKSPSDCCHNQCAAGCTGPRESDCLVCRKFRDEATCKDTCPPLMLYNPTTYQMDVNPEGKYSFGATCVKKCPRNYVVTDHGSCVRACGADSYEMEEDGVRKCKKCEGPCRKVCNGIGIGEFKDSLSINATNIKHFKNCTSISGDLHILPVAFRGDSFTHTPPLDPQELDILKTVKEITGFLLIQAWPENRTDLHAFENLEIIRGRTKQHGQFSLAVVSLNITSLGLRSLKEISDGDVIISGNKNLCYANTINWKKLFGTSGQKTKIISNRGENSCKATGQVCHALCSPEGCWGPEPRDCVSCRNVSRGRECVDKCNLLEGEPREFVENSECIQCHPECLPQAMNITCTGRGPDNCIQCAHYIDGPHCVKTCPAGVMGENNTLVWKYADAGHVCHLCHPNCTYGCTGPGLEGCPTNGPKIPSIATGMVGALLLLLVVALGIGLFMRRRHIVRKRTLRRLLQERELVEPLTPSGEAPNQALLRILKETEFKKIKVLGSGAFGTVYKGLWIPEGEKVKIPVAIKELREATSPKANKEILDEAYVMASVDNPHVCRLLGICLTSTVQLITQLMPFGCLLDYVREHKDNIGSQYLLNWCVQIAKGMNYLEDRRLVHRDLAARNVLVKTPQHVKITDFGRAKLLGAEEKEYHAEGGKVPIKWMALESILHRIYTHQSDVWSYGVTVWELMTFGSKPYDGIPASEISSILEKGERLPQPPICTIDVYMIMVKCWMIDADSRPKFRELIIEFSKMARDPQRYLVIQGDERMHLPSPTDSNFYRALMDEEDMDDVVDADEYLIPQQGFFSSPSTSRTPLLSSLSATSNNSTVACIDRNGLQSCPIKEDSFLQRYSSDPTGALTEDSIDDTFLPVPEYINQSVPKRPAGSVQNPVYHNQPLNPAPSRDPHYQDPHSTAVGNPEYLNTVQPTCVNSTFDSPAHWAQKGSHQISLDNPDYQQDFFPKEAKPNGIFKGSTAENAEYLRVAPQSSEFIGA
# NCI-H1975 = assay: Antiproliferative activity against human NCI-H1975 cells assessed as inhibition of cell growth measured after 72 hrs by CCK8 assay; assay type: functional, cell-based; settings: NCI-H1975, 72 h
# [26] = AUC (0 to infinity) in Sprague-Dawley rat at 5 mg/kg, iv measured upto 24 hrs by HPLC-MS/MS analysis; assay type: ADME, organism-based; parameters: dose 5 mg/kg, time < 24 hrs, route iv; settings: in vivo
# [27] = Antitumor activity against human H1975-TM cells xenografted in BALB/c mouse assessed as tumor growth inhibition at 100 mg/kg, po measured after 25 days; assay type: functional; settings: time 25 day
# [28] = Induction of cell cycle arrest in human H1975-TM cells assessed as accumulation at G2/M phase at 50 nM measured after 24 hrs by RNase A/propidium iodide staining based flow cytometric analysis (reference value: 17.6 %); assay type: functional
# [29] = Toxicity in BALB/c mouse xenografted with human H1975-TM cells assessed as appearance of lesions in heart at 25 to 100 mg/kg, po measured after 25 days by hematoxylin-eosin staining based analysis; assay type: organism-based; settings: in vivo, 600 h, dose 25-100 mg/kg, time 25 day
# [30] = biological target: Epidermal growth factor receptor (Homo sapiens, UniProt P00533, C797S/L858R/T790M)
# Epidermal growth factor receptor (Homo sapiens, UniProt P00533, C797S/L858R/T790M), sequence (P00533 25-1210 T790M/C797S/L858R limits assumed): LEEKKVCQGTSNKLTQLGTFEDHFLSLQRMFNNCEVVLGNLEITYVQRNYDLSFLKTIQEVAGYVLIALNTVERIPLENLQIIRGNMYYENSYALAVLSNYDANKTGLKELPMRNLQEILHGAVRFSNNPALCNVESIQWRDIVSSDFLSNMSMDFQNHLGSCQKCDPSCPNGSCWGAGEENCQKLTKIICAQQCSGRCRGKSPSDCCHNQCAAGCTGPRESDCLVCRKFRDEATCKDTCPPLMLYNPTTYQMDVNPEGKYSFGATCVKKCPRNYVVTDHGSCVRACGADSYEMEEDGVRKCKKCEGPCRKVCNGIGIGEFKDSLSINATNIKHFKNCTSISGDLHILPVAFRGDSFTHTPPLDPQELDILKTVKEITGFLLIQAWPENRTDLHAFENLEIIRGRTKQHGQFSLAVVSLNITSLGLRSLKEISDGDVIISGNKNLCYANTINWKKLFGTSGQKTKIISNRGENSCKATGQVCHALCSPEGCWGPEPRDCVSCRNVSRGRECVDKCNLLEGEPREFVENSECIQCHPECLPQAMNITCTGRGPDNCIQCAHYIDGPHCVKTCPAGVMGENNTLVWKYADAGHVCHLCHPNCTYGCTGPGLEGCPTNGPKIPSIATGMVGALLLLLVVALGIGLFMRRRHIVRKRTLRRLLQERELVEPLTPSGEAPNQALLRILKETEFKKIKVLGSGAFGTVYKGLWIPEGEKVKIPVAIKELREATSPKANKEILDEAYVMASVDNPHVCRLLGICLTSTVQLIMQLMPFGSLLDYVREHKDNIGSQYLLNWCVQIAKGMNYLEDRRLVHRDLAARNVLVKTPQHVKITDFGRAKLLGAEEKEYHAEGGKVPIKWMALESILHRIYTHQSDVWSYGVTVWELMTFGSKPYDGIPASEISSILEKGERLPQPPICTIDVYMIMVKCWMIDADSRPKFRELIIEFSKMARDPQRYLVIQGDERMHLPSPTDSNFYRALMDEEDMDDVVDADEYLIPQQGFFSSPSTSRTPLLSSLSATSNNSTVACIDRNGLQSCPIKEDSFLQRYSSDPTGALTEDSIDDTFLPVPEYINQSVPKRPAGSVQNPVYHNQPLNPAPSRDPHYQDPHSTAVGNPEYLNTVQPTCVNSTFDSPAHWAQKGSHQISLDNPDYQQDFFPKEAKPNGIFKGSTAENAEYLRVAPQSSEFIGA
# [31] = Tmax in Sprague-Dawley rat at 50 mg/kg, po measured upto 24 hrs by HPLC-MS/MS analysis; assay type: ADME, organism-based; settings: in vivo
# [32] = Induction of cell cycle arrest in human H1975-TM cells assessed as accumulation at G0/G1 phase at 250 nM measured after 24 hrs by RNase A/propidium iodide staining based flow cytometric analysis (reference value: 64.3 %); assay type: functional
# H1975-TM [33] = assay: Downregulation of AKT level in human H1975-TM cells at 50 to 1000 nM measured after 24 hrs by Western blot analysis; assay type: functional, cell-based; settings: dose 50-1000 nM
smiles,measurement,setting,value
CCS(=O)(=O)N1CCC(c2nc(-c3ccc(F)cc3)c(-c3ccnc(Nc4ccc5c(ccn5CCN(C)C)c4)n3)s2)CC1,Activity,[1],100%
same,IC50,A-431,1400 nM
same,Activity,[2],17.3%
same,Activity,[3],Non-Toxic
same,Activity,[4],14%
same,MRT inf,[5],5.43 h
same,AUC(0-inf),[6],4780 ng·h/mL
same,IC50,[7],106 nM
same,Activity,[8],19.88%
same,half-life,[9],8.49 h
same,Activity,[10],27.8%
same,TGI,[11],47.5%
same,Activity,[12],Non-Toxic
same,inhibition (INH),[13],100%
same,IC50,PC-9,30 nM
same,Cmax,[14],761 ng/mL
same,MRT inf,[15],4.37 h
same,inhibition,H1975-TM [16],Dose-Dependent Effect
same,Activity,[17],68.3%
same,half-life,[18],4.7 h
same,bioavailability,[19],30.7%
same,Activity,[20],19.07%
same,Tmax,[21],4.8 min
same,Activity,[22],10.3%
same,Activity,[23],Non-Toxic
same,Activity,[24],13.4%
same,IC50,[25],3 nM
same,IC50,NCI-H1975,210 nM
same,AUC(0-inf),[26],1560 ng·h/mL
same,TGI,[27],62.9%
same,Activity,[28],14.4%
same,Activity,[29],Non-Toxic
same,IC50,[30],261 nM
same,Tmax,[31],2 h
same,Activity,[32],70.3%
same,Activity,H1975-TM [33],Active
